Measurements: patent US20240060139A1, “TREATMENT RESPONSE SIGNATURES” (Caris MPI, Inc., priority 2020, published 2024)

Tested on: ovarian cancers
Experiment: Kaplan Meier overall survival on platinum therapy against gene copy number at 5q1x and 3q2x (control analysis)
Assay type: in vivo
Conditions: MAP3K1, IL6ST, PIK3R1 copy number; FIGS. 3F-H
From the text: We then asked whether loss of the PARP15 and PARP8 would also correlate with response or lack of response to PARPi therapy. For this analysis we looked at DNA copy number determined using next-generation sequencing of a panel of 592 genes. See Example 1. […] Without being bound by theory, loss at a one gene is highly correlated with loss of neighboring genes. As a control, we repeated the analysis shown in FIGS. 3C-E but used response to platinum compounds instead of PARPi, specifically carboplatin. […] As a control, we repeated the analysis shown in FIGS. 3I-K but used response to platinum compounds instead of PARPi.

Question: For `N.N.O=C([O-])C1(C(=O)[O-])CCC1.[Pt+2]` [carboplatin], which “response to platinum therapy (overall survival) by gene copy number at 5q1x” value is on record?
Answer: loss of copy number at 5q1x was correlated of positive benefit of platinum therapy
